For series [1], the system named is Indoleamine 2,3-dioxygenase 1 (Homo sapiens), P14902 [C129A]. Description: Inhibition of recombinant human IDO1 C129A mutant expressed in Escherichia coli SG13009(pREP4) at 20 uM using L-Tryptophan as substrate after 25 mins by fluorescence assay relative to control.
For series [2], the target named is T1, Indoleamine 2,3-dioxygenase 1 (Homo sapiens, UniProt P14902). Description: Inhibition of recombinant human IDO1 expressed in bacterial expression system using L-Tryptophan as substrate after 25 mins in absence of GSH and presence of tween20 by fluorescence assay.
Target sequence in this assay (P14902 whole entry): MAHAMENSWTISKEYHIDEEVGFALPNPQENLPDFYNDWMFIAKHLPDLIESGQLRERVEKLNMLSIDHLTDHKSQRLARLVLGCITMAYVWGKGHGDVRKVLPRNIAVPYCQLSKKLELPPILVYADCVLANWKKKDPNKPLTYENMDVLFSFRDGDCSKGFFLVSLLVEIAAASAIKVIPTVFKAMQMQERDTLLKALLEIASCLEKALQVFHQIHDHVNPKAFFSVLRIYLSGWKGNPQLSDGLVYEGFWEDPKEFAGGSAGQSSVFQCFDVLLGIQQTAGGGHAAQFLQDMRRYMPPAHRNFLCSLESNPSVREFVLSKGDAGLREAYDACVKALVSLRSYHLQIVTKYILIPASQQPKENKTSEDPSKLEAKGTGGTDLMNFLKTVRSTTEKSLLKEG
For series [3], the target named is Indoleamine 2,3-dioxygenase 1 (Homo sapiens, UniProt P14902, C129A). In words: Inhibition of recombinant human IDO1 C129A mutant expressed in Escherichia coli SG13009(pREP4) using L-Tryptophan as substrate after 25 mins by fluorescence assay.
Indoleamine 2,3-dioxygenase 1 (Homo sapiens, UniProt P14902, C129A), sequence (P14902 whole entry C129A): as the sequence (P14902 whole entry) above, with C129A counted along it
Series [4] has as its target T1, Indoleamine 2,3-dioxygenase 1. In words: Inhibition of recombinant human IDO1 expressed in bacterial expression system at 150 uM using L-Tryptophan as substrate after 25 mins by fluorescence assay relative to control.
Target sequence in this assay (P14902 whole entry, looked up): as the sequence (P14902 whole entry) above
Another series is filed under the species Homo sapiens. In words: Selectivity ratio of IC50 for recombinant human IDO1 S167A mutant expressed in Escherichia coli SG13009(pREP4) to IC50 for recombinant human IDO1 expressed in bacterial expression system.
In series [5] the target is T1, Indoleamine 2,3-dioxygenase 1. Description: Irreversible inhibition of recombinant human IDO1 expressed in bacterial expression system at 3 uM using L-Tryptophan as substrate after preincubated for 90 mins followed by 100 fold compound dilution measured after 15 mins by fluorescence assay relative to control.
Target sequence in this assay (P14902 whole entry, looked up): as the sequence (P14902 whole entry) above
Series [6] addresses Indoleamine 2,3-dioxygenase 1 (Homo sapiens, UniProt P14902, S167A).
Series [7] deals with T1, Indoleamine 2,3-dioxygenase 1. In words: Inhibition of full length recombinant human His-tagged IDO1 expressed in mouse LLTC cells using L-tryptophan as substrate after 24 hrs. The class given is cell-based.
Target sequence in this assay (P14902 whole entry): as above
Series [8] can be described thus: Cytotoxicity against mouse LLTC cells assessed as reduction in cell viability after 24 hrs by MTT assay. The settings on record: read-out: LC50. The class given is cell-based.
The target of series [9] is T1, Indoleamine 2,3-dioxygenase 1. Description: Inhibition of recombinant human IDO1 expressed in bacterial expression system at 350 uM using L-Tryptophan as substrate after 25 mins by fluorescence assay relative to control.
Target sequence in this assay (P14902 whole entry, looked up): as the sequence (P14902 whole entry) above
Series [10] has the same target. Description: Inhibition of recombinant human IDO1 expressed in bacterial expression system using L-Tryptophan as substrate after 25 mins in absence of GSH and tween20 by fluorescence assay.
Target sequence in this assay (P14902 whole entry): as above
The target is the same in series [11]. In words: Inhibition of full length recombinant human His-tagged IDO1 expressed in mouse LLTC cells using L-tryptophan as substrate after 24 hrs in presence of GSH. The series is classed as cell-based.
Target sequence in this assay (P14902 whole entry): as above
For series [12] the target is unchanged. In words: Inhibition of recombinant human IDO1 expressed in bacterial expression system using L-Tryptophan as substrate after 25 mins in presence of GSH and tween20 by fluorescence assay.
Target sequence in this assay (P14902 whole entry): as above
The next series concerns LLTC cell line. Description: Cytotoxicity against mouse LLTC cells assessed as reduction in cell viability after 24 hrs in presence of GSH by MTT assay. The class given is cell-based.
Series [13] has as its target T1, Indoleamine 2,3-dioxygenase 1. The settings on record: 40 uM.
Target sequence in this assay (P14902 whole entry, looked up): as the sequence (P14902 whole entry) above
Series [14] has as its system Indoleamine 2,3-dioxygenase 1 (Homo sapiens), P14902 [S167A]. In words: Inhibition of recombinant human IDO1 S167A mutant expressed in Escherichia coli SG13009(pREP4) at 20 uM using L-Tryptophan as substrate after 25 mins by fluorescence assay relative to control.
Series [15] has as its target T1, Indoleamine 2,3-dioxygenase 1. The settings on record: 80 uM.
Target sequence in this assay (P14902 whole entry, looked up): as the sequence (P14902 whole entry) above
Series [16] shares this target. The note with it: 30 uM.
Target sequence in this assay (P14902 whole entry, looked up): as the sequence (P14902 whole entry) above
For series [17] the target is unchanged. The settings on record: 50 uM.
The subject of series [18] is Indoleamine 2,3-dioxygenase 1 (Homo sapiens), P14902 [S167A]. Description: Inhibition of recombinant human IDO1 S167A mutant expressed in Escherichia coli SG13009(pREP4) at 400 uM using L-Tryptophan as substrate after 25 mins by fluorescence assay relative to control.
The target of series [19] is T1, Indoleamine 2,3-dioxygenase 1. In words: Inhibition of recombinant human IDO1 expressed in bacterial expression system at 200 uM using L-Tryptophan as substrate after 25 mins by fluorescence assay relative to control.
Series [20] shares this target. In words: Inhibition of recombinant human IDO1 expressed in bacterial expression system at 100 uM using L-Tryptophan as substrate after 25 mins by fluorescence assay relative to control.
Series [21] has the same target. In words: Inhibition of recombinant human IDO1 expressed in bacterial expression system at 50 uM using L-Tryptophan as substrate after 25 mins by fluorescence assay relative to control.

Indoleamine 2,3-dioxygenase 1 (Homo sapiens), P14902 [C129A], sequence (P14902 whole entry C129A): as the sequence (P14902 whole entry) above, with C129A counted along it
Indoleamine 2,3-dioxygenase 1 (Homo sapiens, UniProt P14902, S167A), sequence (P14902 whole entry S167A): as the sequence (P14902 whole entry) above, with S167A counted along it
Indoleamine 2,3-dioxygenase 1 (Homo sapiens), P14902 [S167A], sequence (P14902 whole entry S167A): as the sequence (P14902 whole entry) above, with S167A counted along it

The inhibition is the drop in the measured response relative to a control, in per cent. For orientation: IC50 means the concentration that inhibits the measured activity by half. Take `c1ccc2c(c1)Nc1ccncc1S2`: the inhibition in series [1] came out at 38.8%. Further, the IC50 in series [2] stood at 422 µM; in [3] it was 31.6 µM.

In the case of `CCC1=C(c2ccccc2)C(=O)c2ccccc21`, in series [4], the inhibition stood at 20%.

Turning to `NNC(=O)CNc1cccc(Br)c1`, in [1], the inhibition was found to be 30.8%. Also, the IC50 in series [2] turned out to be 1000 µM; in series [3] it was 44.9 µM.

As to `Cc1ccccc1C1=[N+]([O-])c2ccccc2C1=O`, the Ratio IC50 in the series listed under Homo sapiens came out at 5. The inhibition in [5] is greater than 75%. In addition, the IC50 in series [6] was 2.2 µM; in [7], 3.9 µM; in series [2], 0.46 µM. For the same compound, the CC50 at 24 h in series [8] came to 12 µM.

Consider `COc1ccc(C2=Nc3ccccc3C2=O)cc1`, for which, in series [9], the inhibition was found to be 5%.

Turning to `Oc1nccc(SCc2ccc(Cl)cc2Cl)n1`, the Ratio IC50 in the series filed under Homo sapiens amounted to 3. Besides, the IC50 in series [10] was 4.3 µM; in series [6], 20 µM; in [7] it was 4.4 µM; in series [11], 0.2 to 3 µM; in [12] it was 0.75 µM; in series [2] it was 7.5 µM. In addition, in the series with LLTC cell line, the Activity entry is listed as “Non-Toxic”. Also, in series [8], the CC50 at 24 h was greater than 117 µM. This compound displayed an inhibition in series [13] of less than 25%.

Regarding `Oc1ccccc1-c1nc2c3ccccc3c3ccccc3c2[nH]1`, the inhibition in series [14] is 2%; in series [15], less than 25%. For the same compound, the Ratio IC50 in the series listed under Homo sapiens lay within 8 to 109. Moreover, the IC50 in [10] was 7.8 µM; in series [6], 26 to 980 µM; in series [7] it was 52 µM; in series [12], 4.9 µM; in series [2], 3.3 to 9 µM. In series [8], the CC50 at 24 h was greater than 100 µM.

For the compound `Clc1ccc(SCNc2ccccc2Cl)cc1`, in the series listed under Homo sapiens, the Ratio IC50 amounted to 0.2. Further, the IC50 was 5.5 µM in [10]; 0.87 µM in [6]; 6.3 µM in series [7]; 1.5 µM in [12]; 4.5 µM in series [2]. In series [8], the CC50 at 24 h was determined as 40 µM. Also, in [16], the inhibition is less than 25%.

Consider `c1ccc(NCCSc2nc3ccccc3s2)cc1`, for which the inhibition in series [1] amounted to 70.8%. In addition, the values for the IC50 in series [2] and in [3] were 115 µM and 8.2 µM, respectively.

As for `Cc1ccc([S+]([O-])c2ccc([N+](=O)[O-])c3nonc23)cc1` (stereo unspecified), the Ratio IC50 in the series listed under Homo sapiens was 0.055. In addition, the IC50 came to 14 µM in [10]; 0.66 µM in series [6]; 15 µM in series [7]; 2.1 µM in series [12]; 12 µM in series [2]. For the same compound, the inhibition in series [17] was greater than 75%. Also, in series [8], the CC50 at 24 h came to 29 µM.

On to `Oc1ccc(-c2nc3c4ccccc4c4ccccc4c3[nH]2)cc1`, for which, in the series filed under Homo sapiens, the Ratio IC50 was greater than 2. In addition, the IC50 in [2] was 522 µM. Also, the inhibition in [18] came to 14%.

As for `O=C1C(c2ccccc2)=Nc2ccccc21`, the IC50 in [7] amounted to 114 µM. Further, the CC50 at 24 h in series [8] came out at 220 µM. Moreover, the inhibition in series [9] stood at 9%.

Regarding `Cc1cc(I)ccc1Nc1cc2no[n+]([O-])c2cc1C(=O)O`, the Ratio IC50 in the series filed under Homo sapiens is greater than 44. For the same compound, the IC50 in [2] was 23 µM. Also, the inhibition in series [18] was 2%.

Regarding `O=C1c2ccccc2CC1c1ccccc1` (stereo unspecified), in series [19], the inhibition is 21%.

`CC(=O)NC1=C(c2ccccc2)C(=O)c2ccccc21`: the inhibition in [20] was 14%.

On to `NC1=C(c2ccccc2)C(=O)c2ccccc21`, for which the inhibition in series [20] was determined as 14%.

For the compound `COc1ccc(C2=C(N)c3ccccc3C2=O)cc1`, in series [21], the inhibition was determined as 13%.

Turning to `COc1ccc(-c2cc3ccccc3[nH]2)cc1`, the inhibition in series [19] came out at 16%.

The values above are taken from ChEMBL document CHEMBL4007389, “Discovery and evaluation of inhibitors to the immunosuppressive enzyme indoleamine 2,3-dioxygenase 1 (IDO1): Probing the active site-inhibitor interactions” (Eur J Med Chem, 2017).
